Measurements from the supplement of paper PMC10307832.

Tests used:
Assay in all cases: relative viability (nuclei count vs DMSO), 5 days (fraction); higher = more cells survive
[1] = compound: CN1C=C(C2=CC=CC=C21)/C=C\3/C4=C(C=CC=N4)NC3=O + O=C(c1cc(Cc2n[nH]c(=O)c3ccccc23)ccc1F)N1CCN(C(=O)C2CC2)CC1 [Olaparib] (partner 8 µM)
How it was run: (§1)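 Lung cancer cell lines were pin-tool dosed in 1536-well plates on the day after seeding, with either a lone drug or a fixed anchor-drug dose plus five library-drug doses (not always all listed) in √10 steps. Nuclei were counted on 4× images after 5 days. Relative viability is the ratio of treated-well to vehicle-well nuclei counts, with each value a median of duplicate plates.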

[2] = compound: CN1C=C(C2=CC=CC=C21)/C=C\3/C4=C(C=CC=N4)NC3=O + C[C@@H](Oc1cc(-c2cnn(C3CCNCC3)c2)cnc1N)c1c(Cl)ccc(F)c1Cl [Crizotinib] (partner 1 µM)
How it was run: as §1

Trametinib + Pemetrexed = compound: CC(=O)Nc1cccc(-n2c(=O)n(C3CC3)c(=O)c3c(Nc4ccc(I)cc4F)n(C)c(=O)c(C)c32)c1 [Trametinib] + Nc1nc2[nH]cc(CCc3ccc(C(=O)N[C@@H](CCC(=O)O)C(=O)O)cc3)c2c(=O)[nH]1 [Pemetrexed] (partner 0.2 µM)
How it was run: as §1

Trametinib + Navitoclax = compound: CC(=O)Nc1cccc(-n2c(=O)n(C3CC3)c(=O)c3c(Nc4ccc(I)cc4F)n(C)c(=O)c(C)c32)c1 [Trametinib] + CC1(C)CCC(c2ccc(Cl)cc2)=C(CN2CCN(c3ccc(C(=O)NS(=O)(=O)c4ccc(N[C@H](CCN5CCOCC5)CSc5ccccc5)c(S(=O)(=O)C(F)(F)F)c4)cc3)CC2)C1 [Navitoclax] (partner 0.5 µM)
How it was run: as §1

Cell Line	relative viability ([1]; first compound 0.02 µM)	relative viability ([1]; first compound 0.06325 µM)	relative viability ([1]; first compound 0.2 µM)	relative viability ([1]; first compound 0.6325 µM)	relative viability ([1]; first compound 2 µM)	relative viability ([2]; first compound 0.02 µM)	relative viability ([2]; first compound 0.06325 µM)	relative viability ([2]; first compound 0.2 µM)	relative viability ([2]; first compound 0.6325 µM)	relative viability ([2]; first compound 2 µM)	relative viability (Trametinib + Pemetrexed; first compound 0.0025 µM)	relative viability (Trametinib + Pemetrexed; first compound 0.007906 µM)	relative viability (Trametinib + Pemetrexed; first compound 0.025 µM)	relative viability (Trametinib + Pemetrexed; first compound 0.07906 µM)	relative viability (Trametinib + Pemetrexed; first compound 0.25 µM)	relative viability (Trametinib + Navitoclax; first compound 0.0025 µM)	relative viability (Trametinib + Navitoclax; first compound 0.007906 µM)	relative viability (Trametinib + Navitoclax; first compound 0.025 µM)	relative viability (Trametinib + Navitoclax; first compound 0.07906 µM)	relative viability (Trametinib + Navitoclax; first compound 0.25 µM)
LCLC-103H	0.764	0.727	0.801	0.825	0.808	1.11	1.13	1.05	1.13	1.07	0.482	0.495	0.523	0.5	0.519	–	–	–	–	–
HCC-44	0.908	0.954	1.02	0.997	0.942	0.793	0.73	0.722	0.712	0.715	0.647	0.702	0.734	0.763	0.772	1.03	0.751	0.865	0.805	0.446
RERF-LC-KJ	0.736	0.681	0.763	0.528	0.468	0.831	0.829	0.787	0.77	0.718	0.481	0.474	0.435	0.494	0.422	0.948	1.09	0.968	0.966	0.717
NCI-H1975	0.803	0.737	0.674	0.61	0.47	0.749	0.939	0.915	0.817	0.796	0.326	0.284	0.246	0.249	0.226	0.999	1	0.713	0.466	0.395
IA-LM	0.726	0.726	0.749	0.896	0.802	0.732	0.724	0.668	0.615	0.521	–	–	–	–	–	0.584	0.383	0.179	0.1	0.0292
LCLC-97TM1	–	0.348	0.309	0.314	0.289	0.232	–	–	0.331	0.419	0.188	0.238	0.181	0.176	0.152	0.427	0.451	0.216	0.207	0.122
NCI-H520	0.298	0.369	0.312	0.342	0.363	0.569	0.828	0.885	0.773	0.807	0.645	0.69	0.667	0.648	0.533	1.11	1.15	1.04	1.01	0.77
ABC-1	0.976	0.745	0.612	0.826	0.86	1.03	0.988	1.03	1.04	1.43	–	–	–	–	–	–	–	–	–	–
NCI-H1395	0.461	0.476	0.455	0.527	0.457	–	–	–	–	–	0.952	0.837	0.708	0.609	0.466	1.17	1.01	1.27	1.14	0.685
EBC-1	0.728	0.68	0.623	0.625	0.585	0.233	0.182	0.192	0.183	0.207	–	–	–	–	–	0.274	0.218	0.157	0.141	0.179
NCI-H358	0.607	0.534	0.564	0.565	0.507	0.56	0.497	0.606	0.601	0.633	0.156	0.143	0.164	0.16	0.152	–	–	–	–	–
NCI-H650	0.464	0.418	–	0.434	0.411	0.586	0.601	–	0.771	0.797	1.12	1.31	1.01	1.06	0.884	–	–	–	–	–
NCI-H727	0.76	0.729	0.67	0.688	0.635	0.835	0.614	0.691	0.81	0.808	–	–	–	–	–	0.158	0.117	0.0956	0.0926	0.0927
A549	0.325	0.352	–	0.278	0.355	0.631	0.755	0.724	0.828	0.75	–	–	–	–	–	1.12	0.81	0.464	0.281	0.0636
NCI-H1563	–	–	–	–	–	0.871	0.897	0.736	0.893	0.971	0.787	0.755	0.574	0.669	0.657	–	–	–	–	–
NCI-H1703	0.377	0.513	0.419	0.401	0.421	0.724	0.783	0.556	0.699	0.604	–	–	–	–	–	1.15	1.15	1.06	0.972	0.987
NCI-H1299	0.96	0.97	1	1	0.952	0.937	0.945	0.911	1.07	0.901	–	–	–	–	–	1.04	1.01	0.896	0.887	0.78
NCI-H661	0.825	0.722	0.791	0.89	0.822	1.07	1.01	1.11	1.04	1.14	0.882	0.889	0.821	0.753	0.753	–	–	–	–	–
NCI-H522	0.615	0.685	0.679	0.556	0.691	–	–	–	–	–	1.04	1.07	0.75	0.742	0.752	–	–	–	–	–
NCI-H1648	1.26	1.01	1.02	0.74	0.496	–	–	–	–	–	0.676	0.69	0.883	0.752	0.559	–	–	–	–	–
NCI-H1793	0.678	0.813	0.72	0.817	0.63	–	–	–	–	–	0.617	0.481	0.315	0.365	0.338	0.36	0.345	0.265	0.216	0.133
